Values joined by “and” are separate entries in the source; they are usually repeats but may differ in a detail not shown here. Equal entries are not always repeated.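 Exposure lasted 48 hours, with cells grown in 96-well plates and compounds tested at five concentrations. Abbreviation: GI50, concentration required for 50% inhibition of growth. Definition used: TGI = concentration required for complete inhibition of growth.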
Columns and labels:
Assay in all cases: NCI tumour cell line growth inhibition, 48 h
[1] = system: 786-0 renal
[2] = system: HCC-2998 colon
[3] = system: HL-60(TB) leukemia
[4] = system: HT29 colon
[5] = system: KM12 colon
[6] = system: M14 melanoma
[7] = system: NCI-H226 lung
[8] = system: NCI-H522 lung
[9] = system: SK-MEL-2 melanoma
[10] = system: SK-OV-3 ovarian

Compound: CC(=O)OC1OC([C@H]2c3cccc(O)c3C(=O)c3c(O)cc(C)cc32)C(O)C(O)C1O (some centres not stated)
- GI50 [1]: 0.0334 µM
- TGI [1]: 1.99 µM
- GI50 [2]: < 0.01 µM
- GI50 [3]: 0.0157 µM
- TGI [3]: 0.0472 µM
- GI50 [4]: 0.116 µM
- TGI [4]: > 100 µM
- GI50 [5]: 0.202 µM
- TGI [5]: 0.624 µM
- GI50 [6]: < 0.0214 µM
- TGI [6]: 3.85 µM
- GI50 [7]: < 0.01 µM
- TGI [7]: 0.0455 µM
- GI50 [8]: 0.0479 µM
- TGI [8]: 19.9 µM
- GI50 [9]: 0.0962 µM
- TGI [9]: 2.63 µM
- GI50 [10]: 0.0576 µM
- TGI [10]: 12.3 µM

Compound: Cc1cn(-c2cc(NC(=O)c3cccc(C#Cc4cccc5[nH]nc(N)c45)c3)cc(C(F)(F)F)c2)cn1
- GI50 [1]: 4.72 µM
- TGI [1]: 20.6 µM
- GI50 [2]: 3.17 µM
- TGI [2]: > 100 µM
- GI50 [3]: 3.22 µM
- TGI [3]: 32.6 µM
- GI50 [4]: 2.55 µM
- TGI [4]: 17.7 µM
- GI50 [5]: 1.29 µM
- TGI [5]: > 100 µM
- GI50 [6]: 2.48 µM
- TGI [6]: 17.4 µM
- GI50 [7]: 0.771 µM
- TGI [7]: 61.2 µM
- GI50 [8]: 5.48 µM
- TGI [8]: 49 µM
- GI50 [9]: 2.27 µM
- TGI [9]: 8.14 µM
- GI50 [10]: 22.2 µM
- TGI [10]: > 100 µM

Compound: CCOC(=O)[CH-]C(=O)C12CC3CC(CC(C3)C1)C2.CCOC(=O)[CH-]C(=O)C12CC3CC(CC(C3)C1)C2.CC[O-].CC[O-].[Ti+4]
- GI50 [1]: > 100 µM
- TGI [1]: > 100 µM
- GI50 [3]: > 100 µM
- TGI [3]: > 100 µM
- GI50 [4]: > 100 µM
- TGI [4]: > 100 µM
- GI50 [5]: > 100 µM
- TGI [5]: > 100 µM
- GI50 [6]: > 100 µM
- TGI [6]: > 100 µM
- GI50 [8]: > 100 µM
- TGI [8]: > 100 µM
- GI50 [10]: > 100 µM
- TGI [10]: > 100 µM

Compound: NCCCNCCS
- GI50 [1]: > 100 µM and 49.5 µM
- TGI [1]: > 100 µM
- TGI [2]: > 100 µM
- TGI [3]: > 100 µM
- TGI [4]: > 100 µM
- TGI [5]: > 100 µM
- TGI [6]: > 100 µM
- TGI [7]: > 100 µM
- TGI [8]: > 100 µM
- TGI [9]: > 100 µM
- TGI [10]: > 100 µM

Compound: CCN1C(=O)/C(=C/c2c(Cl)[nH]c3cc(C)c(OC)cc23)c2ccccc21
- GI50 [1]: 4.87 µM
- TGI [1]: 21.3 µM
- GI50 [2]: 2.4 µM
- TGI [2]: 7.15 µM
- GI50 [4]: 1.55 µM
- TGI [4]: > 100 µM
- GI50 [5]: 0.483 µM
- TGI [5]: 12.2 µM
- GI50 [6]: 4.42 µM
- TGI [6]: 53.9 µM
- GI50 [7]: 32.2 µM
- TGI [7]: > 100 µM
- GI50 [8]: 0.823 µM
- TGI [8]: 6.58 µM
- GI50 [9]: 0.708 µM
- TGI [9]: > 100 µM

Compound: O=c1[nH]c2ccccc2cc1-c1nc2ccc(Cl)cc2[nH]1
- GI50 [1]: 7.42 µM
- TGI [1]: > 100 µM
- GI50 [2]: 11 µM
- TGI [2]: > 100 µM
- GI50 [3]: 3.24 µM
- TGI [3]: 10.4 µM
- GI50 [4]: 4.24 µM
- TGI [4]: > 100 µM
- GI50 [5]: 0.385 µM
- TGI [5]: > 100 µM
- GI50 [6]: 2.86 µM
- TGI [6]: > 100 µM
- GI50 [7]: 2.71 µM
- TGI [7]: > 100 µM
- GI50 [8]: 6.79 µM
- TGI [8]: > 100 µM
- GI50 [10]: 2.22 µM
- TGI [10]: 8.01 µM

Compound: Cc1ccc(S(=O)(=O)N/N=C2\CCCCC23CCC(=O)NC3)cc1 (configuration not stated)
- TGI [1]: > 100 µM
- TGI [2]: > 100 µM
- TGI [3]: > 100 µM
- TGI [5]: > 100 µM
- TGI [6]: > 100 µM
- TGI [7]: > 100 µM
- TGI [8]: > 100 µM
- TGI [9]: > 100 µM
- TGI [10]: > 100 µM

Compound: CN(C)C/C=C/C(=O)Nc1ccc(C(=O)N[C@@]2(C)CCC[C@@H](Nc3ncc(Cl)c(-c4c[nH]c5ccccc45)n3)C2)nc1
- GI50 [1]: < 0.0146 µM
- TGI [1]: 0.236 µM
- GI50 [2]: < 0.01 µM
- TGI [2]: 0.164 µM
- GI50 [3]: 0.0145 µM
- TGI [3]: 0.0665 µM
- GI50 [4]: < 0.01 µM
- TGI [4]: 1.09 µM
- GI50 [5]: 0.013 µM
- TGI [5]: 0.194 µM
- GI50 [6]: < 0.01 µM
- TGI [6]: 0.0282 µM
- GI50 [8]: 0.0178 µM
- TGI [8]: 0.0664 µM
- GI50 [9]: 0.0129 µM
- TGI [9]: 0.0511 µM
- GI50 [10]: 0.101 µM
- TGI [10]: 1.23 µM

Compound: Nc1ncc(-c2cnn(C3CCNCC3)c2)cc1-c1nc2cc(Cl)ccc2o1
- GI50 [1]: 1.71 µM
- TGI [1]: 3.16 µM
- GI50 [2]: 1.47 µM
- TGI [2]: 2.82 µM
- GI50 [3]: 1.56 µM
- TGI [3]: 3.2 µM
- GI50 [4]: 0.352 µM
- TGI [4]: 1.25 µM
- GI50 [5]: 0.392 µM
- TGI [5]: 1.71 µM
- GI50 [6]: 1.79 µM
- TGI [6]: 3.25 µM
- GI50 [10]: 1.76 µM
- TGI [10]: 3.22 µM

Compound: [N-]=[N+]=NCCCn1c2c(c3ccc([N+](=O)[O-])cc3c1=O)C(=O)c1ccccc1-2
- GI50 [1]: > 100 µM
- TGI [1]: > 100 µM
- GI50 [3]: 0.0101 µM
- TGI [3]: > 100 µM
- GI50 [4]: > 100 µM
- TGI [4]: > 100 µM
- GI50 [5]: > 100 µM
- TGI [5]: > 100 µM
- GI50 [6]: > 100 µM
- TGI [6]: > 100 µM
- GI50 [8]: 70.3 µM
- TGI [8]: > 100 µM
- GI50 [9]: > 100 µM
- TGI [9]: > 100 µM
- GI50 [10]: > 100 µM
- TGI [10]: > 100 µM

Compound: N#CCC(=O)N/N=C1/C(=O)N(c2ccc(Cl)cc2)C(=O)C(=O)C1c1nc2ccccc2s1 (configuration not stated)
- TGI [1]: > 100 µM
- TGI [2]: > 100 µM
- TGI [4]: > 100 µM
- TGI [5]: > 100 µM
- TGI [6]: > 100 µM
- TGI [7]: > 100 µM
- TGI [8]: > 100 µM
- TGI [9]: > 100 µM
- TGI [10]: > 100 µM

Compound: O=C(Nc1cccc(O)c1)C(=O)C1C(=O)NC(=S)NC1=O
- TGI [1]: > 100 µM
- TGI [2]: > 100 µM
- TGI [3]: > 100 µM
- TGI [4]: > 100 µM
- TGI [6]: > 100 µM
- TGI [7]: > 100 µM
- TGI [8]: > 100 µM
- TGI [10]: > 100 µM

Compound: NC(CCCC(N)P(=O)(O)O)P(=O)(O)O (configuration not stated)
- TGI [1]: > 100 µM
- TGI [2]: > 100 µM
- TGI [4]: > 100 µM
- TGI [5]: > 100 µM
- TGI [6]: > 100 µM
- TGI [7]: > 100 µM
- TGI [8]: > 100 µM
- TGI [10]: > 100 µM

Compound: CC(=O)C1C(c2ccccc2)C2(C)OC(=O)C(C#N)C12C (configuration not stated)
- TGI [1]: > 100 µM
- TGI [3]: > 100 µM
- TGI [5]: > 100 µM
- TGI [6]: > 100 µM
- TGI [7]: > 100 µM
- TGI [9]: > 100 µM
- TGI [10]: > 100 µM

Compound: CSC(SC)(C(=O)O)c1cc(-c2c(Cl)cccc2Cl)no1
- TGI [1]: > 100 µM
- TGI [4]: > 100 µM
- TGI [6]: > 100 µM
- TGI [7]: > 100 µM
- TGI [8]: 80.3 µM
- TGI [9]: > 100 µM
- TGI [10]: > 100 µM

Compound: COc1ccc2c(c1)OC1=C(C(=O)OC1)C2c1cc(OC)c2c(c1)OCCO2 (configuration not stated)
- GI50 [1]: 0.068 µM
- TGI [1]: > 23.1 µM
- GI50 [2]: 0.0781 µM
- GI50 [3]: 0.042 µM
- TGI [3]: 0.174 µM
- GI50 [4]: 0.0366 µM
- GI50 [5]: 0.0464 µM
- TGI [5]: > 100 µM
- GI50 [6]: 0.0566 µM
- TGI [6]: > 100 µM
- GI50 [9]: 0.0483 µM
- TGI [9]: > 100 µM
- GI50 [10]: 0.0716 µM
- TGI [10]: 7.33 µM

Compound: COc1cc(NCC(C#N)C#N)ccc1N=Nc1ccc(Cl)cc1
- TGI [1]: 48.8 µM
- TGI [2]: 35.1 µM
- TGI [4]: 30.5 µM
- TGI [5]: 33.4 µM
- TGI [6]: 33.5 µM
- TGI [7]: > 100 µM
- TGI [8]: 31.9 µM
- TGI [9]: 46.9 µM
- TGI [10]: 83.8 µM

Reference: PubChem BioAssay (NCI)
